According to ChEMBL document CHEMBL6115028, “An Amazing 30-Year Journey around the DABO Family: A Medicinal Chemistry Lesson on a Versatile Class of Non-nucleoside HIV-1 Reverse Transcriptase Inhibitors” (J Med Chem, 2025):

What was measured:
[1] = system: Human immunodeficiency virus 1; assay: Antiviral activity against wild type HIV-1 NL4-3 infected in human MT4 cells assessed as reduction in viral replication measured for 72 hrs by ELISA analysis; format: functional, organism-based; details: Human immunodeficiency virus 1, NL4-3, MT4, 72 h
[2] = system: Human immunodeficiency virus 1; assay: Antiviral activity against HIV-1 NL4-3 harboring infected K103N mutant infected in human MT4 cells assessed as reduction in viral replication; format: functional, organism-based; details: Human immunodeficiency virus 1, NL4-3, MT4
[3] = Selectivity index, ratio of CC50 for human MT4 cells to EC50 for antiviral activity against HIV1 infected in human MT4 cells; format: toxicity, cell-based; details: read-out: Ratio CC50/EC50
[4] = system: Human immunodeficiency virus 1; assay: Antiviral activity against HIV1 IIIB infected in human MT4 cells assessed as reduction in virus-induced cytopathic effect incubated for 4 days by MTT assay; format: functional, organism-based; details: Human immunodeficiency virus 1, IIIB, MT4, 96 h
[5] = Cytotoxicity against african green monkey Vero cells assessed as reduction in cell viability measured after 72 hrs by MTT assay; format: toxicity, cell-based; details: chlorocebus sabaeus
[6] = system: Human immunodeficiency virus 1; assay: Antiviral activity against HIV-1 NL4-3 infected in human MT2 cells assessed as reduction in viral replication assessed as inhibition of viral growth incubated for 72 hrs by ELISA; format: functional, organism-based; details: Human immunodeficiency virus 1, NL4-3, MT2, 72 h
[7] = system: Human immunodeficiency virus 1; assay: Antiviral activity against wild-type HIV-1 IIIB infected in human MT4 cells assessed as reduction in virus-induced cytopathic effect incubated for 5 days by MTT assay; format: functional, organism-based; details: Human immunodeficiency virus 1, IIIB, MT4, 120 h
MT4 [8] = assay: Cytotoxicity against human MT4 cells assessed as reduction in cell growth after 5 days by MTT assay; format: functional; details: MT4, 120 h, time 5 day
[9] = system: Human immunodeficiency virus 1; assay: Antiviral activity against wild type HIV-1 NL4-3 infected in human MT4 cells assessed as reduction in viral replication; format: functional, organism-based; details: Human immunodeficiency virus 1, NL4-3, MT4
C8166 = assay: Cytotoxicity against human C8166 cells assessed as reduction in cell viability; format: functional
[10] = Selectivity index, ratio of CC50 for cytotoxicity against human MT2 cells to EC50 for antiviral activity against HIV-1 IIIB infected in human MT2 cells; format: toxicity, cell-based; details: read-out: Ratio CC50/EC50
[11] = system: Human immunodeficiency virus 1; assay: Antiviral activity against HIV-1 IIIB infected in human C8166 cells assessed as reduction in virus -induced cytopathic effect measured after 48 hrs by CellTiter-Glo Luminescent cell viability assay; format: functional, organism-based; details: Human immunodeficiency virus 1, IIIB, C8166, 48 h
[12] = system: Human immunodeficiency virus 1; assay: Antiviral activity against HIV-1 NL4-3 harboring infected Y181C mutant infected in human MT4 cells assessed as reduction in viral replication; format: functional, organism-based; details: Human immunodeficiency virus 1, NL4-3, MT4
MT4 [13] = assay: Cytotoxicity against human MT4 cells assessed as reduction in cell growth incubated for 3 days by CellTiter-Glo luminescent assay; format: functional; details: MT4, 72 h, time 3 day
[14] = system: Human immunodeficiency virus 1; assay: Antiviral activity against HIV-1 IIIB infected in human C8166 cells; format: functional, organism-based; details: Human immunodeficiency virus 1, IIIB
[15] = system: Human immunodeficiency virus 2; assay: Antiviral activity against HIV-2 ROD infected in human MT4 cells assessed as virus-induced cytopathic effect incubated for 5 days by MTT assay; format: functional, organism-based; details: Human immunodeficiency virus 2, ROD, MT4, 120 h
[16] = Cytotoxicity against African green monkey Vero cells assessed as reduction in cell viability incubated for 72 hrs by MTT assay; format: toxicity, cell-based; details: chlorocebus sabaeus
[17] = system: Human immunodeficiency virus 1; assay: Antiviral activity against HIV-1 harboring protease V82F mutant infected in human C8166 cells assessed as inhibition of viral replication measured for 72 hrs by spectrophotometric MTT assay; format: functional, organism-based; details: Human immunodeficiency virus 1, C8166, 72 h

Compound COc1ccc(/C=C/CSc2nc(C(C)c3c(F)cccc3F)c(C)c(=O)[nH]2)cc1 (stereo unspecified) has an EC50 [1] of 2 nM.

Compound COc1ccc(CSc2nc(C(C)c3c(Cl)cccc3Cl)c(C)c(=O)[nH]2)cc1 (stereo unspecified) has an EC50 [2] of 5720 nM and an EC50 [1] of 1 nM.

In the case of Cc1c(O)nc(SC2CCCCC2)nc1Cc1ccccc1, the selectivity ratio [3] is reported as > 530 and the EC50 [4] is reported as 600 nM.

With Cc1c([C@H](C)c2c(F)cccc2F)nc(SC2CCCCC2)[nH]c1=O the selectivity ratio [3] was > 10000 and the CC50 at 72 h [5] was > 200000 nM.

With CCc1c(C(C)c2c(F)cccc2F)nc(SC/C=C/c2ccc([N+](=O)[O-])cc2)[nH]c1=O (stereo unspecified) the EC50 [1] was 4 nM.

Work on CSCSc1nc(O)c(C(C)C)c(Cc2ccccc2)n1 yielded an EC50 [6] of 40 nM.

In the case of Cc1c(C(C)c2c(F)cccc2F)nc(SCc2ccc([N+](=O)[O-])cc2)[nH]c1=O (stereo unspecified), the EC50 [2] is reported as 650 nM and the EC50 [1] is reported as 3 nM.

With CCCCNc1nc(Cc2c(F)cccc2F)c(C)c(=O)[nH]1 the EC50 [7] was 6 nM and the CC50 (MT4 [8]) was 70000 nM.

For CSCSc1nc(O)c(C)c(Cc2ccccc2)n1, the EC50 [6] was 1200 nM.

CCc1c(Cc2cccc3ccccc23)[nH]c(SCSC)nc1=O showed an EC50 ([9]; read-out: ED50 (the source's name)) of 4600 nM.

Compound CSCSc1nc(Cc2ccccc2)cc(=O)[nH]1 has an EC50 [6] of 20000 nM.

With CCC(C)Sc1nc(O)cc(Cc2c(F)cccc2F)n1 (stereo unspecified) the CC50 at 72 h [5] was > 200000 nM, the CC50 (C8166) was > 200000 nM and the selectivity ratio [10] was > 5000. For the same compound, the EC50 [11] was 40 nM.

With Cc1c(OP(=O)(N[C@@H](C)C(=O)OCc2ccccc2)Oc2ccccc2)nc(N(C)C)nc1C(C)c1c(F)cccc1F (stereo partly specified) the EC50 [12] was 1100 nM and the EC50 ([9]; read-out: EC50) was 10 nM.

Work on Cc1c(Cc2c(F)cccc2F)nc(NC2CCCCC2)[nH]c1=O yielded an EC50 [7] of 5 nM and a CC50 (MT4 [8]) of 200000 nM.

For C#CCOC(=O)[C@H](C)NP(=O)(Oc1ccccc1)Oc1nc(N(C)C)nc(C(C)c2c(F)cccc2F)c1C (stereo partly specified), the EC50 [12] was 500 nM and the EC50 ([9]; read-out: EC50) was 3 nM.

CCCCNc1nc(C(C)c2c(F)cccc2F)c(C)c(=O)[nH]1 (stereo unspecified) showed an EC50 [7] of 40 nM.

With CCC(C)Sc1nc(O)cc(Cc2cccc(C)c2)n1 (stereo unspecified) the selectivity ratio [3] was > 578 and the EC50 [4] was 600 nM.

Work on Cc1c(Cc2ccccc2)nc(SCC(=O)c2ccc(F)cc2)[nH]c1=O yielded a CC50 (MT4 [13]) of 275000 nM, an EC50 [14] of 180 nM and an EC50 [15] of 275000 nM.

COc1ccc(CSc2nc(C(C)c3c(F)cccc3F)c(C)c(=O)[nH]2)cc1 (stereo unspecified) showed an EC50 [1] of 2 nM.

In the case of Cc1cccc(Cc2nc(SC3CCCC3)nc(O)c2C)c1, the selectivity ratio [3] is reported as > 530 and the EC50 [4] is reported as 600 nM.

For CCC(C)Sc1nc(O)cc(Cc2c(Cl)cccc2Cl)n1 (stereo unspecified), the CC50 at 72 h [5] was > 200000 nM, the CC50 (C8166) was > 200000 nM and the selectivity ratio [10] was > 1430. The EC50 [11] was 140 nM.

With CCc1c(Cc2ccccc2)nc(SCC(=O)c2ccc(OC)cc2)[nH]c1=O the CC50 (MT4 [13]) was 178000 nM, the EC50 [14] was 45 nM and the EC50 [15] was 18900 nM.

With Cc1c(O)nc(SC2CCCC2)nc1Cc1ccccc1 the selectivity ratio [3] was > 555 and the EC50 [4] was 800 nM.

In the case of COC(=O)[C@H](C)NP(=O)(Oc1ccccc1)Oc1nc(N(C)C)nc(C(C)c2c(F)cccc2F)c1C (stereo partly specified), the EC50 [12] is reported as 1200 nM and the EC50 ([9]; read-out: EC50) is reported as 7 nM.

For CC(C)CCSc1nc(Cc2c(F)cccc2I)cc(=O)[nH]1, the CC50 at 72 h [5] was > 200000 nM, the CC50 (C8166) was > 200000 nM and the selectivity ratio [10] was > 4000. The EC50 [11] was 50 nM.

With CSCSc1nc(Cc2c(F)cccc2F)cc(=O)[nH]1 the CC50 at 72 h [16] was > 200000 nM and the EC50 [17] was 800 nM.

In the case of CCC(C)Sc1nc(O)c(C)c(Cc2c(Cl)cccc2Cl)n1 (stereo unspecified), the CC50 at 72 h [5] is reported as > 200000 nM, the CC50 (C8166) is reported as > 200000 nM and the selectivity ratio [10] is reported as > 4000. The EC50 [11] was 50 nM.

Cc1cc(C)cc(OCCSc2nc(Cc3ccccc3)cc(=O)[nH]2)c1 gave a CC50 at 72 h [16] of 72900 nM and an EC50 [17] of 1300 nM.

Compound CCCCSc1nc(O)c(C)c(C(C)c2c(F)cccc2F)n1 (stereo unspecified) has a selectivity ratio [3] of 14000 and a CC50 at 72 h [5] of 112000 nM.

For Cc1c(Cc2c(Cl)cccc2Cl)nc(SCC(=O)Nc2ccc(Cl)cc2)[nH]c1=O, the selectivity ratio [3] was > 836, the CC50 (MT4 [13]) was > 266000 nM and the EC50 [14] was 320 nM.

CCc1c(C(C)c2c(F)cccc2F)nc(SC/C=C/c2ccc(OC)cc2)[nH]c1=O (stereo unspecified) showed an EC50 [1] of 2 nM.

Cc1cc(C)cc(OCCSc2nc(Cc3c(F)cccc3F)cc(=O)[nH]2)c1 gave a CC50 at 72 h [16] of 90000 nM and an EC50 [17] of 11200 nM.
